Read-outs that look alike come from different tables or passages of the source.

Twelve compounds from patent US20260028354A1, “TETRAHYDRONAPHTHALENE DERIVATIVES AS ESTROGEN RECEPTOR DEGRADERS” (REGENT OF THE UNIVERSITY OF MICHIGAN, priority 2022, published 2026) can be followed below.

Test [1] is described as follows: Cell growth assay (WST-8) for "B" compounds. Type of test: cell-based. As to conditions: T47D, read-out: Cell growth Inhibition in T47D cell line IC50. In a few lines: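 Four-day compound exposure of cells plated at 1500/well the day before. Read-out is WST-8 (10%, 2.5 h, 37 °C) absorbance at 450 nm, normalized to vehicle control over three independent repeats.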
For orientation: Tetrazolium dyes change colour on reduction, which living cells bring about.

The target in the next test is ER (Homo sapiens (Human), UniProt P03372). As to the kind of experiment: In-cell western blot analysis of ER for "B" compounds. Type of test: cell-based. As to conditions: 16 hours, read-out: ICW DC50. In a few lines: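 ER levels given as a percentage of untreated/DMSO-treated wells (100%). Detection used primary antibodies for 2 h at room temperature followed by 680 and 800 nm fluorescent secondaries at 1:1000 for 1 h, read by LI-COR imaging.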
ER, sequence (P03372 whole entry): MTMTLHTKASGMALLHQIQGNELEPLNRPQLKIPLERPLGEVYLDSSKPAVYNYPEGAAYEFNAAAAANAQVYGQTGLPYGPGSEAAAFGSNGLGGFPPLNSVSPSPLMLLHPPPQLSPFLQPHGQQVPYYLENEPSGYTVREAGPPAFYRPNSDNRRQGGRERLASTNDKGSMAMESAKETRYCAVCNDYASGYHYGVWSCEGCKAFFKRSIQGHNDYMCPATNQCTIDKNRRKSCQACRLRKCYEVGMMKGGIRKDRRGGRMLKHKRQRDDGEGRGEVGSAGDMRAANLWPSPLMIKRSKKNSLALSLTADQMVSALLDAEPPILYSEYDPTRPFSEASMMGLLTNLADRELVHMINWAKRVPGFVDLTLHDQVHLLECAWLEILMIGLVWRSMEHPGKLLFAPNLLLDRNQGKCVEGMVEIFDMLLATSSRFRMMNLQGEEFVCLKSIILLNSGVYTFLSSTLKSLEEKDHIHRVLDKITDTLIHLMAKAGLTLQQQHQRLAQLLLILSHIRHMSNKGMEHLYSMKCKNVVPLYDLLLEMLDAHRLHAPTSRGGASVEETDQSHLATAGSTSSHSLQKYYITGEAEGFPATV

`O=C1CCC(N2Cc3cc4c(cc3C2=O)OC[C@@H]2CN(CC(=O)N3CCC5(CC3)CCN(c3ccc([C@@H]6c7ccc8[nH]ncc8c7CC[C@@H]6c6ccccc6)cc3)CC5)CCN42)C(=O)N1` (stereo partly drawn) [Compound B389, 3-((S)-8-oxo-3-(2-oxo-2-(9-(4-((6R,7S)-7-phenyl-6,7,8,9-tetrahydro-3H-benzo[e]indazol-6-yl)phenyl)-3,9-diazaspiro[5.5]undecan-3-yl)ethyl)-1,2,3,4,4a,5,8,10-octahydro-9H-pyrazino[1′,2′:4,5][1,4]oxazino[2,3-f]isoindol-9-yl)piperidine-2,6-dione]: the IC50 (usually the point on the concentration scale where inhibition reaches its midpoint) in test [1] (T47D cell line) was more than 10 nM. Further, on ER, the DC50 was more than 100 nM.
The corresponding values for `O=C1CC[C@H](N2Cc3cc4c(cc3C2=O)OC[C@@H]2CN(C[C@H]3COC5(CCN(c6ccc([C@@H]7c8ccc(O)cc8CC[C@@H]7c7ccccc7)cc6)CC5)C3)CCN42)C(=O)N1` [Compound B398, (S)-3-((S)-3-(((S)-8-(4-((1R,2S)-6-hydroxy-2-phenyl-1,2,3,4-tetrahydronaphthalen-1-yl)phenyl)-1-oxa-8-azaspiro[4.5]decan-3-yl)methyl)-8-oxo-1,2,3,4,4a,5,8,10-octahydro-9H-pyrazino[1′,2′:4,5][1,4]oxazino[2,3-f]isoindol-9-yl)piperidine-2,6-dione] are less than 1 nM and less than 10 nM.
On to `O=C1CC[C@H](N2Cc3c(ccc4c3OC[C@H]3CN(CC(=O)OC5CCN(c6ccc([C@@H]7c8ccc(O)cc8CC[C@@H]7c7ccccc7)cc6)CC5)CCN43)C2=O)C(=O)N1` [Compound B341], for which the IC50 in test [1] (T47D cell line) is less than 1 nM. The DC50 at ER is less than 10 nM.
Regarding `O=C1CCC(N2Cc3c(ccc4c3OCC43CCN(CC4CCN(c5ccc([C@@H]6c7ccc(O)cc7CC[C@@H]6c6ccccc6)cc5)CC4)CC3)C2=O)C(=O)N1` (stereo partly drawn) [Compound B258, 3-(1′-((1-(4-((1R,2S)-6-hydroxy-2-phenyl-1,2,3,4-tetrahydronaphthalen-1-yl)phenyl)piperidin-4-yl)methyl)-6-oxo-6,8-dihydro-2H,7H-spiro[furo[2,3-e]isoindole-3,4′-piperidin]-7-yl)piperidine-2,6-dione], the IC50 in test [1] was less than 1 nM. Also, at ER, the DC50 was 10 to 100 nM.
For `O=C1CCC(N2Cc3cc4c(cc3C2=O)OC[C@@H]2CN(C(=O)CN3CCC5(C3)CN(c3ccc([C@@H]6c7ccc(O)cc7CC[C@@H]6c6ccccc6)cc3)C5)CCN42)C(=O)N1` (stereo partly drawn) [Compound B154, 3-((S)-3-(2-(2-(4-((1R,2S)-6-hydroxy-2-phenyl-1,2,3,4-tetrahydronaphthalen-1-yl)phenyl)-2,6-diazaspiro[3.4]octan-6-yl)acetyl)-8-oxo-1,2,3,4,4a,5,8,10-octahydro-9H-pyrazino[1′,2′:4,5][1,4]oxazino[2,3-f]isoindol-9-yl)piperidine-2,6-dione], the IC50 in test [1] (T47D cell line) is less than 1 nM. The DC50 at ER was less than 10 nM.
The corresponding values for `O=C1CCC(N2Cc3cc4c(cc3C2=O)OC[C@@H]2CN(CC3CCC5(CN(c6ccc([C@@H]7c8ccc(O)cc8CC[C@@H]7c7ccccc7)cc6)C5)OC3)CCN42)C(=O)N1` (stereo partly drawn) [Compound B334, 3-((4aS)-3-((2-(4-((1R,2S)-6-hydroxy-2-phenyl-1,2,3,4-tetrahydronaphthalen-1-yl)phenyl)-5-oxa-2-azaspiro[3.5]nonan-7-yl)methyl)-8-oxo-1,2,3,4,4a,5,8,10-octahydro-9H-pyrazino[1′,2′:4,5][1,4]oxazino[2,3-f]isoindol-9-yl)piperidine-2,6-dione] are less than 1 nM and 10 to 100 nM.
For `O=C1CCC(N2Cc3cc4c(cc3C2=O)OC[C@@H]2CN(CC(=O)N3CCC5(CC3)CCN(c3ncc([C@@H]6c7ccc(O)cc7CC[C@@H]6c6ccccc6)cn3)CC5)CCN42)C(=O)N1` (mixture of isomers) [Compound B149, 3-((S)-3-(2-(9-(5-(cis-6-hydroxy-2-phenyl-1,2,3,4-tetrahydronaphthalen-1-yl)pyrimidin-2-yl)-3,9-diazaspiro[5.5]undecan-3-yl)-2-oxoethyl)-8-oxo-1,2,3,4,4a,5,8,10-octahydro-9H-pyrazino[1′,2′: 4,5][1,4]oxazino[2,3-f]isoindol-9-yl)piperidine-2,6-dione], the IC50 in test [1] is less than 1 nM. In addition, the DC50 on ER is 10 to 100 nM.
In the case of `O=C1CC[C@H](N2Cc3cc4c(cc3C2=O)OC[C@H](CN2CCC3(CC2)CCN(c2ccc([C@@H]5c6ccc(O)cc6CC[C@@H]5c5ccccc5)cc2)CC3)O4)C(=O)N1` [Compound B391, 3-((S)-2-((9-(4-((1R,2S)-6-hydroxy-2-phenyl-1,2,3,4-tetrahydronaphthalen-1-yl)phenyl)-3,9-diazaspiro[5.5]undecan-3-yl)methyl)-6-oxo-2,3,6,8-tetrahydro-7H-[1,4]dioxino[2,3-f]isoindol-7-yl)piperidine-2,6-dione], the IC50 in test [1] (T47D cell line) was 1 to 10 nM. In addition, the DC50 at ER was more than 100 nM.
The corresponding values for `O=C1CCC(N2Cc3cc4c(cc3C2=O)OC[C@@H]2CN(CC(=O)N3CCC5(CC3)CCN(c3ccc([C@@H]6c7ccc(O)cc7CC[C@@H]6c6ccccc6)cn3)CC5)CCN42)C(=O)N1` (stereo partly drawn) [Compound B148, 3-((S)-3-(2-(9-(5-(cis-6-hydroxy-2-phenyl-1,2,3,4-tetrahydronaphthalen-1-yl)pyridin-2-yl)-3,9-diazaspiro[5.5]undecan-3-yl)-2-oxoethyl)-8-oxo-1,2,3,4,4a,5,8,10-octahydro-9H-pyrazino[1′,2′: 4,5][1,4]oxazino[2,3-f]isoindol-9-yl)piperidine-2,6-dione] are 1 to 10 nM and 10 to 100 nM.
As for `O=C1CCC(N2Cc3c(ccc4c3OCC43CCN(CC(=O)N4CCC5(CC4)CN(c4ccc([C@@H]6c7ccc(O)cc7CC[C@@H]6c6ccccc6)cc4)C5)CC3)C2=O)C(=O)N1` (stereo partly drawn) [Compound B213, 3-(1′-(2-(2-(4-((1R,2S)-6-hydroxy-2-phenyl-1,2,3,4-tetrahydronaphthalen-1-yl)phenyl)-2,7-diazaspiro[3.5]nonan-7-yl)-2-oxoethyl)-6-oxo-6,8-dihydro-2H,7H-spiro[furo[2,3-e]isoindole-3,4′-piperidin]-7-yl)piperidine-2,6-dione], the IC50 in test [1] was less than 1 nM. Besides, the DC50 at ER was less than 10 nM.
On to `O=C1CCC(N2Cc3cc4c(cc3C2=O)OC[C@@H]2CN(CC3CCC5(CCN(c6ccc([C@@H]7c8ccc(O)cc8CC[C@@H]7c7ccccc7)cc6)CC5)C3)CCN42)C(=O)N1` (stereo partly drawn) [Compound B363, 3-((4aS)-3-((8-(4-((1R,2S)-6-hydroxy-2-phenyl-1,2,3,4-tetrahydronaphthalen-1-yl)phenyl)-8-azaspiro[4.5]decan-2-yl)methyl)-8-oxo-1,2,3,4,4a,5,8,10-octahydro-9H-pyrazino[1′,2′:4,5][1,4]oxazino[2,3-f]isoindol-9-yl)piperidine-2,6-dione], for which, in test [1] (T47D cell line), the IC50 is more than 10 nM. In addition, on ER, the DC50 lay within 10 to 100 nM.
Turning to `O=C1CCC(N2Cc3cc4c(cc3C2=O)OC[C@@H]2CN(CC3COC5(C3)CN(c3ccc([C@@H]6c7ccc(O)cc7CC[C@@H]6c6ccccc6)cc3)C5)CCN42)C(=O)N1` (stereo partly drawn) [Compound B231, 3-((4aS)-3-((2-(4-((1R,2S)-6-hydroxy-2-phenyl-1,2,3,4-tetrahydronaphthalen-1-yl)phenyl)-5-oxa-2-azaspiro[3.4]octan-7-yl)methyl)-8-oxo-1,2,3,4,4a,5,8,10-octahydro-9H-pyrazino[1′,2′:4,5][1,4]oxazino[2,3-f]isoindol-9-yl)piperidine-2,6-dione], the IC50 in test [1] (T47D cell line) is less than 1 nM. Further, on ER, the DC50 lay within 10 to 100 nM.
